Experimental data published in article PMC9817970 (Cancers, 2022).

Key:
Assay in all cases: Kinase panel profiling
Assay type in all cases: biochemical
Settings in all cases: 10 μM ATP
[1] = molecular target: T1, CAMK2d (Homo sapiens, UniProt Q13557)
T1 construct: purchased Reaction Biology Corp
Procedure: (§1) Kinase panel profiling was conducted by Reaction Biology Corp. (San Diego, CA, USA). A single dose (1.0 μM) of 6r was tested against 371 recombinant human kinases in the presence of 10 μM ATP.

[2] = molecular target: T2, CAMK4 (Homo sapiens, UniProt Q16566)
T2 construct: purchased Reaction Biology Corp
Procedure: as §1

[3] = molecular target: T3, CAMKK2 (Homo sapiens, UniProt Q96RR4)
T3 construct: purchased Reaction Biology Corp
T3 sequence (Q96RR4 whole entry): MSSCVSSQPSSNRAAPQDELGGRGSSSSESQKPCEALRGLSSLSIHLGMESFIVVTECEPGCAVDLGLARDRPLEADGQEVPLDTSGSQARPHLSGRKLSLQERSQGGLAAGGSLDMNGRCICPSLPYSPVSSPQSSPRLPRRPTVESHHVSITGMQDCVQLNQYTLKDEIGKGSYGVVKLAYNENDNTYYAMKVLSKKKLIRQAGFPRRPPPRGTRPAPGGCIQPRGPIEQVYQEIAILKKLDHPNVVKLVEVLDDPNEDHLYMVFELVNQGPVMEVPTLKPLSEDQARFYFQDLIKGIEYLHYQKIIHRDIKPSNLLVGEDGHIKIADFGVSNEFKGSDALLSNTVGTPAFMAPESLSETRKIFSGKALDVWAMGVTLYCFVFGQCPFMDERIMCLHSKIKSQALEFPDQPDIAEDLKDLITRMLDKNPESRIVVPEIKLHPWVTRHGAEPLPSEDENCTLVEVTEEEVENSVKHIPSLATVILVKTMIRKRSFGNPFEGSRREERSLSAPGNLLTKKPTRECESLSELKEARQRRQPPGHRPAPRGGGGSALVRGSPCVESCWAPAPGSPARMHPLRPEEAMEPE
Procedure: as §1

[4] = molecular target: T4, CDK17/cyclin Y (PCTK2) (Homo sapiens, UniProt Q00537)
T4 construct: purchased Reaction Biology Corp
Procedure: as §1

[5] = molecular target: T5, CDK4/cyclin D1 (Homo sapiens, UniProt P11802)
T5 construct: purchased Reaction Biology Corp
T5 sequence (P11802 whole entry): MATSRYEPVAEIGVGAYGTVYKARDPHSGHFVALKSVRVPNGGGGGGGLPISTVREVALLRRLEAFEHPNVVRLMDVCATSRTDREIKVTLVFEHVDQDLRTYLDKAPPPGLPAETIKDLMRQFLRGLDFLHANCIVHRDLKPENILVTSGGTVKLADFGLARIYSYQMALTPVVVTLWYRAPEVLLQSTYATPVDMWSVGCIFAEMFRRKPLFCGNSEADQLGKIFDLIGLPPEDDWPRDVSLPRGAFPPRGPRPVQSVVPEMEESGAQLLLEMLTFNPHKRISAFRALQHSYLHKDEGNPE
T5 sequence (P24385 whole entry partner): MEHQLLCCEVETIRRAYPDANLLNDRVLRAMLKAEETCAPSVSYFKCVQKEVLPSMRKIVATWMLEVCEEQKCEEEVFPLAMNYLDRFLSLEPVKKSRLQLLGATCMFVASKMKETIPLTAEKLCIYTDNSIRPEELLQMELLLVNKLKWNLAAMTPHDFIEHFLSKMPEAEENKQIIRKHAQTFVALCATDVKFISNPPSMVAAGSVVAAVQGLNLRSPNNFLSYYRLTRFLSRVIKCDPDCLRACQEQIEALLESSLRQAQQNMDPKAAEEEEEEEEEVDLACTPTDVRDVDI
Procedure: as §1

[6] = molecular target: T6, CDK6/cyclin D3 (Homo sapiens, UniProt Q00534)
T6 construct: purchased Reaction Biology Corp
Procedure: as §1

[7] = molecular target: T7, CDK9/cyclin T2 (Homo sapiens, UniProt P50750)
T7 construct: purchased Reaction Biology Corp
Procedure: as §1

[8] = molecular target: T8, DMPK (Homo sapiens, UniProt Q09013)
T8 construct: purchased Reaction Biology Corp
Procedure: as §1

[9] = molecular target: T9, EGFR (Homo sapiens, UniProt P00533)
T9 construct: purchased Reaction Biology Corp
Procedure: as §1

[10] = molecular target: T10, EPHA6 (Homo sapiens, UniProt Q9UF33)
T10 construct: purchased Reaction Biology Corp
Procedure: as §1

[11] = molecular target: T11, ERBB2/HER2 (Homo sapiens, UniProt P04626)
T11 construct: purchased Reaction Biology Corp
Procedure: as §1

[12] = molecular target: T12, ERBB4/HER4 (Homo sapiens, UniProt Q15303)
T12 construct: purchased Reaction Biology Corp
Procedure: as §1

[13] = molecular target: T13, FGFR2 (Homo sapiens, UniProt P21802)
T13 construct: purchased Reaction Biology Corp
Procedure: as §1

[14] = molecular target: T14, FGFR4 (Homo sapiens, UniProt P22455)
T14 construct: purchased Reaction Biology Corp
Procedure: as §1

[15] = molecular target: T15, FLT4/VEGFR3 (Homo sapiens, UniProt P35916)
T15 construct: purchased Reaction Biology Corp
T15 sequence (P35916 25-1363): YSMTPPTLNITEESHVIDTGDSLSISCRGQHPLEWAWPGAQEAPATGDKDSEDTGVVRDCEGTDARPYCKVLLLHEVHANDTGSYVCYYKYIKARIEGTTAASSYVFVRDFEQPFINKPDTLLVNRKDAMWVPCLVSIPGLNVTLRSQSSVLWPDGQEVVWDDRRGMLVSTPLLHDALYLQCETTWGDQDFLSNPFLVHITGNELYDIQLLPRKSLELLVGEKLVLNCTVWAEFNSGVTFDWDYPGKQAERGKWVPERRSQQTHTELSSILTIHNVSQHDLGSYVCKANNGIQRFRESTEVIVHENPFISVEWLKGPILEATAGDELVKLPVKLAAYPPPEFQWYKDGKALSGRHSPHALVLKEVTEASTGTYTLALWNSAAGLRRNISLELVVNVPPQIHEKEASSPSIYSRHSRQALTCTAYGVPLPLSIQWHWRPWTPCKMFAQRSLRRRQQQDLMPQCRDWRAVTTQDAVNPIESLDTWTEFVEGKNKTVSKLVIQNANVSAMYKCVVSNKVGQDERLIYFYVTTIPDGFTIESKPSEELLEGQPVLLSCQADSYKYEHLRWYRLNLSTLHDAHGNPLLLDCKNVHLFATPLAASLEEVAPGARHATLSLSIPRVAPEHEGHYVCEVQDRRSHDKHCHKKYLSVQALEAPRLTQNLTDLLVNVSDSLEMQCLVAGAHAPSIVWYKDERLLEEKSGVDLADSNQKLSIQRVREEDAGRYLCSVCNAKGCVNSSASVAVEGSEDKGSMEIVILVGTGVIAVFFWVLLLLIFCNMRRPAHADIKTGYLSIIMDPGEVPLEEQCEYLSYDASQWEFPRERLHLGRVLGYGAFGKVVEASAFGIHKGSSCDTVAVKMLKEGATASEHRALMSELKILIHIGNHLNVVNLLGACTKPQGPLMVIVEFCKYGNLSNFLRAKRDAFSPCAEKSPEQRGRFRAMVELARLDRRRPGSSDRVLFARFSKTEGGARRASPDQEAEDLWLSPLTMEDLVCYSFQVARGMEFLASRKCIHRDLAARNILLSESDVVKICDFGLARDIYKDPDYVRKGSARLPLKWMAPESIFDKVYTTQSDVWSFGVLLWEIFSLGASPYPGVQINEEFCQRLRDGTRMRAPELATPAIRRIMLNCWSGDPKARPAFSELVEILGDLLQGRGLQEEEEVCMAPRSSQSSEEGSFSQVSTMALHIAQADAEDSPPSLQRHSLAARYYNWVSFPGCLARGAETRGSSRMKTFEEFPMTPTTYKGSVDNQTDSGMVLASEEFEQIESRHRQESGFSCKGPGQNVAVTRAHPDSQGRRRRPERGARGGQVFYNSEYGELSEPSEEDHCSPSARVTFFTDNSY
Procedure: as §1

[16] = molecular target: T16, GSK3b (Homo sapiens, UniProt P49841)
T16 construct: purchased Reaction Biology Corp
Procedure: as §1

[17] = molecular target: T17, HPK1/MAP4K1 (Homo sapiens, UniProt Q92918)
T17 construct: purchased Reaction Biology Corp
Procedure: as §1

[18] = molecular target: T18, Haspin (Homo sapiens, UniProt Q8TF76)
T18 construct: purchased Reaction Biology Corp
Procedure: as §1

[19] = molecular target: T19, IKKa/CHUK (Homo sapiens, UniProt O15111)
T19 construct: purchased Reaction Biology Corp
Procedure: as §1

[20] = molecular target: T20, ITK (Homo sapiens, UniProt Q08881)
T20 construct: purchased Reaction Biology Corp
Procedure: as §1

[21] = molecular target: T21, MEK2 (Homo sapiens, UniProt P36507)
T21 construct: purchased Reaction Biology Corp
T21 sequence (P36507 whole entry): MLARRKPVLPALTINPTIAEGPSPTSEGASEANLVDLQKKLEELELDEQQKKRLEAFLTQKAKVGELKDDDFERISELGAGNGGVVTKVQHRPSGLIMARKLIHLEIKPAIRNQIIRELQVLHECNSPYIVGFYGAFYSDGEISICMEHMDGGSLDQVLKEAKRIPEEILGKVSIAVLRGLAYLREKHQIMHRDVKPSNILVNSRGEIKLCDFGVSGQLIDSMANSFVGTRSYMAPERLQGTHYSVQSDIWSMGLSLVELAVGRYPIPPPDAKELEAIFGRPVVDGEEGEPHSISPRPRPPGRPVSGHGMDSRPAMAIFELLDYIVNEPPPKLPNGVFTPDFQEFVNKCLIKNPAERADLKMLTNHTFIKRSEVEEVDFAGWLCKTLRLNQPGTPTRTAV
Procedure: as §1

[22] = molecular target: T22, MINK/MINK1 (Homo sapiens, UniProt Q8N4C8)
T22 construct: purchased Reaction Biology Corp
Procedure: as §1

[23] = molecular target: T23, MLCK/MYLK (Homo sapiens, UniProt Q15746)
T23 construct: purchased Reaction Biology Corp
Procedure: as §1

[24] = molecular target: T24, MST1/STK4 (Homo sapiens, UniProt Q13043)
T24 construct: purchased Reaction Biology Corp
Procedure: as §1

[25] = molecular target: T25, MST3/STK24 (Homo sapiens, UniProt Q9Y6E0)
T25 construct: purchased Reaction Biology Corp
Procedure: as §1

[26] = molecular target: T26, MST4 (Homo sapiens, UniProt Q9P289)
T26 construct: purchased Reaction Biology Corp
Procedure: as §1

[27] = molecular target: T27, PDGFRa (Homo sapiens, UniProt P16234)
T27 construct: purchased Reaction Biology Corp
T27 sequence (P16234 24-1089): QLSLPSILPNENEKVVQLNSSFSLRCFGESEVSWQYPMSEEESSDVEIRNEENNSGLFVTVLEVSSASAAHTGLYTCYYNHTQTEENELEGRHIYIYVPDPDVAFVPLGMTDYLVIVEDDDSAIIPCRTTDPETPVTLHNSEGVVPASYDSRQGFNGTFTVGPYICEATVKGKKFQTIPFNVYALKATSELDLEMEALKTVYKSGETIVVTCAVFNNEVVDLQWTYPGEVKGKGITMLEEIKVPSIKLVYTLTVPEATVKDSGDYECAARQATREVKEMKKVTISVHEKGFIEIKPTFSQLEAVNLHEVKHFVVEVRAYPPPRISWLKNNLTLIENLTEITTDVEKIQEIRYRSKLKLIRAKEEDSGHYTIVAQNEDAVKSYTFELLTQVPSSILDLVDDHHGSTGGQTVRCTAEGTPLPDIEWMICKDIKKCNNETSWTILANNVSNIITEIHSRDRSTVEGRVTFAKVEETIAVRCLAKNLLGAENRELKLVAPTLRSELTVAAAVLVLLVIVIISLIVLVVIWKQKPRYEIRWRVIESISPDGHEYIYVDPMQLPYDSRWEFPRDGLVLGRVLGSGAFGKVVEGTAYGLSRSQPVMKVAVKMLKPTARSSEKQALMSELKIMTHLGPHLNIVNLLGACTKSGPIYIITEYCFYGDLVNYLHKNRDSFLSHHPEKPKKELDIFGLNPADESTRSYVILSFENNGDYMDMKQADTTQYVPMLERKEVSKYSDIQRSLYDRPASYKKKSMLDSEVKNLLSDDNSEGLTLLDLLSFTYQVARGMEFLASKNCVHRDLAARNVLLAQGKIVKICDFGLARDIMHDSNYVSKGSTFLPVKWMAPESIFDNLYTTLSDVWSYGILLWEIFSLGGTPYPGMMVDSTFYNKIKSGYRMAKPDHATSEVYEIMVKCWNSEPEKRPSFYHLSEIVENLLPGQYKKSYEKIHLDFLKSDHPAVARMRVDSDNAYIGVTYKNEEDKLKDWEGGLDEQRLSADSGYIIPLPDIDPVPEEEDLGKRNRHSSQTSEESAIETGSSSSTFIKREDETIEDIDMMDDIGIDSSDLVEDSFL
Procedure: as §1

[28] = molecular target: T28, PDK1/PDPK1 (Homo sapiens, UniProt O15530)
T28 construct: purchased Reaction Biology Corp
Procedure: as §1

[29] = molecular target: T29, PIM2 (Homo sapiens, UniProt Q9P1W9)
T29 construct: purchased Reaction Biology Corp
Procedure: as §1

[30] = molecular target: T30, PKCg (Homo sapiens, UniProt P05129)
T30 construct: purchased Reaction Biology Corp
Procedure: as §1

[31] = molecular target: T31, PKMYT1 (Homo sapiens, UniProt Q99640)
T31 construct: purchased Reaction Biology Corp
Procedure: as §1

[32] = molecular target: T32, PLK1 (Homo sapiens, UniProt P53350)
T32 construct: purchased Reaction Biology Corp
Procedure: as §1

[33] = molecular target: T33, ROS/ROS1 (Homo sapiens, UniProt P08922)
T33 construct: purchased Reaction Biology Corp
Procedure: as §1

[34] = molecular target: T34, SLK/STK2 (Homo sapiens, UniProt Q9H2G2)
T34 construct: purchased Reaction Biology Corp
Procedure: as §1

[35] = molecular target: T35, STK39/STLK3 (Homo sapiens, UniProt Q9UEW8)
T35 construct: purchased Reaction Biology Corp
Procedure: as §1

[36] = molecular target: T36, TAOK2/TAO1 (Homo sapiens, UniProt Q9UL54)
T36 construct: purchased Reaction Biology Corp
Procedure: as §1

[37] = molecular target: T37, TAOK3/JIK (Homo sapiens, UniProt Q9H2K8)
T37 construct: purchased Reaction Biology Corp
T37 sequence (Q9H2K8 whole entry): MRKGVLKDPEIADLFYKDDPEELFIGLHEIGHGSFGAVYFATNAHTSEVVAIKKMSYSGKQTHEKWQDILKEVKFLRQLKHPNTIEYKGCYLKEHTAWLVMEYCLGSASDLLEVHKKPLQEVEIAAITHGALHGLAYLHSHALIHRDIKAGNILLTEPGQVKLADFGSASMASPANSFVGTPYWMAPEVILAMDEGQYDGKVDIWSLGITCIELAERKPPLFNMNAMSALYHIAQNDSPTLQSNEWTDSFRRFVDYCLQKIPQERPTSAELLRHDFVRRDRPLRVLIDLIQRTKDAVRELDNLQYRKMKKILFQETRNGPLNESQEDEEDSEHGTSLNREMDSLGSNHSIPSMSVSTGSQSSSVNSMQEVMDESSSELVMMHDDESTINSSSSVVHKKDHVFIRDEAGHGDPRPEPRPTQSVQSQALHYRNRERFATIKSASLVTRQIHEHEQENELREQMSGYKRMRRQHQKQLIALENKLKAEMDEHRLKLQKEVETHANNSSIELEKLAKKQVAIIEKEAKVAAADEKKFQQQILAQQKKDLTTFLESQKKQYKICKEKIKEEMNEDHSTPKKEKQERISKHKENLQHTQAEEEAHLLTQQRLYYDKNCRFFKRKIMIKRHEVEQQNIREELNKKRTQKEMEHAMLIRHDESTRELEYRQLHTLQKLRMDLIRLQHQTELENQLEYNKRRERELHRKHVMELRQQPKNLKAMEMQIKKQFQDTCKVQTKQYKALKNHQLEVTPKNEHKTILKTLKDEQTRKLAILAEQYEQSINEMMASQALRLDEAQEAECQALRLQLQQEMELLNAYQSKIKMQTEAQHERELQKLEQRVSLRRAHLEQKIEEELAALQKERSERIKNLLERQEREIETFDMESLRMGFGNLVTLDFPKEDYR
Procedure: as §1

[38] = molecular target: T38, TEC (Homo sapiens, UniProt P42680)
T38 construct: purchased Reaction Biology Corp
Procedure: as §1

[39] = molecular target: T39, TLK2 (Homo sapiens, UniProt Q86UE8)
T39 construct: purchased Reaction Biology Corp
Procedure: as §1

[40] = molecular target: T40, TNIK (Homo sapiens, UniProt Q9UKE5)
T40 construct: purchased Reaction Biology Corp
Procedure: as §1

[41] = molecular target: T41, TRKA (Homo sapiens, UniProt P04629)
T41 construct: purchased Reaction Biology Corp
Procedure: as §1

[42] = molecular target: T42, p70S6K/RPS6KB1 (Homo sapiens, UniProt P23443)
T42 construct: purchased Reaction Biology Corp
Procedure: as §1

With `Cc1ccc(NC(=O)c2ccc(CN3CCN(C)CC3)c(C(F)(F)F)c2)cc1-c1cnc2sc(N)nc2c1` [6r] the inhibition at 1 µM [1] was 0%, the inhibition at 1 µM [2] was 3.2% and the inhibition at 1 µM [3] was 20.5%. For the same compound, the inhibition at 1 µM [4] was 3.9%, the inhibition at 1 µM [5] was 4.7% and the inhibition at 1 µM [6] was 4.2%. For the same compound, the inhibition at 1 µM [7] was 0%, the inhibition at 1 µM [8] was 0% and the inhibition at 1 µM [9] was 21.4%. It also gave an inhibition at 1 µM [10] of 39.9%, an inhibition at 1 µM [11] of 5.4% and an inhibition at 1 µM [12] of 73.9%. For the same compound, the inhibition at 1 µM [13] was 43%, the inhibition at 1 µM [14] was 30.1% and the inhibition at 1 µM [15] was 77.8%. It also gave an inhibition at 1 µM [16] of 12.9%, an inhibition at 1 µM [17] of 0% and an inhibition at 1 µM [18] of 12.1%. For the same compound, the inhibition at 1 µM [19] was 4.8%, the inhibition at 1 µM [20] was 3.8% and the inhibition at 1 µM [21] was 7.1%. It also gave an inhibition at 1 µM [22] of 0%, an inhibition at 1 µM [23] of 11% and an inhibition at 1 µM [24] of 4.3%. The inhibition at 1 µM [25] was 12.5%, the inhibition at 1 µM [26] was 15.7% and the inhibition at 1 µM [27] was 96.7%. The inhibition at 1 µM [28] was 7.2%, the inhibition at 1 µM [29] was 0.8% and the inhibition at 1 µM [30] was 0.7%. For the same compound, the inhibition at 1 µM [31] was 10%, the inhibition at 1 µM [32] was 0% and the inhibition at 1 µM [33] was 6.6%. For the same compound, the inhibition at 1 µM [34] was 37.8%, the inhibition at 1 µM [35] was 19.2% and the inhibition at 1 µM [36] was 61.9%. The inhibition at 1 µM [37] was 17.8%, the inhibition at 1 µM [38] was 1.6% and the inhibition at 1 µM [39] was 0%. It also gave an inhibition at 1 µM [40] of 22.4%, an inhibition at 1 µM [41] of 9.7% and an inhibition at 1 µM [42] of 8.4%.
